Common to all, as to test: NCI tumour cell line growth inhibition, 48 h
Assay [1] deals with ACHN renal.
Assay [2] deals with NCI-H460 lung.
Assay [3] deals with DMS 114 small cell lung.
The subject of assay [4] is LXFL 529 NSCLC.
Assay [5] deals with UACC-257 melanoma.
The subject of assay [6] is SNB-78 CNS.
Assay [7] has as its system DMS 273 small cell lung.
For assay [8], the system named is SF-539 CNS.
In assay [9] the test system is SW-620 colon.
Assay [10] concerns M19-MEL melanoma.

SMILES strings stand for the structures.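 These data come from cells grown in 96-well plates and exposed to compound for 48 hours at five concentrations. The concentration for 50% growth inhibition is given as GI50. TGI is the concentration that stops growth completely.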 A value given as a limit tells only on which side of the number the result lay.

Turning to `CC1=CC2C(C=C1)S(=O)(=O)N1CC21c1ccccc1` (centres undefined), the TGI in assay [1], in [2], in assay [3], in assay [4], in assay [5] and in assay [6] was greater than 100 µM in each case. Moreover, the TGI in [7], in [8], in assay [9] and in assay [10] was greater than 100 µM throughout.

`CC(C)N(C(=O)C12C3C4C1C1C2C3C41C#N)C(C)C` (centres undefined): the TGI in assay [1], in [2], in assay [3], in [4], in assay [5] and in assay [6] was greater than 100 µM throughout. The TGI in [7], in [8], in [9] and in assay [10] was greater than 100 µM in each case.

For `CC(C)(C)N=CN1C=Cc2nc3ccccc3cc2C1`, the TGI in assay [1], in [2], in assay [3], in assay [4], in assay [5] and in assay [6] was greater than 100 µM each time. Also, the TGI in assay [7] is greater than 100 µM; in assay [8], greater than 100 µM; in assay [9], 49.2 µM; in assay [10] it was greater than 100 µM.

For the molecule `COc1ccc2[nH]c3c(c2c1)[C@H](c1ccccc1)C[C@@H]1C(=O)N(c2ccccc2)C(=O)[C@H]31`, the TGI was 42.9 µM in [1]; 84.1 µM in assay [2]; 92.7 µM in [3]; greater than 100 µM in assay [4]; greater than 100 µM in assay [5]; greater than 100 µM in [6]. The TGI in assay [7] is greater than 100 µM; in assay [8], greater than 100 µM; in assay [9], 49.7 µM; in assay [10] it was greater than 100 µM.

In the case of `Nc1nc2c(N)cc(C(F)(F)F)cc2nc1-c1ccccc1`, the TGI in assay [1], in assay [2], in assay [3], in assay [4], in [5] and in assay [6] was greater than 100 µM in each case. Besides, the TGI in [7], in assay [8], in [9] and in assay [10] was greater than 100 µM in each case.

As to `CC1=C(c2nc3ccccc3s2)C(=O)OC1(C)C`, the TGI in assay [1], in assay [2], in assay [3], in assay [4], in assay [5] and in assay [6] was greater than 100 µM each time. The TGI in [7], in assay [8], in assay [9] and in [10] was greater than 100 µM in each case.

`O=C1[C@@H]2C(c3ccc(Br)cc3)=NO[C@@H]2C(=O)N1c1ccc(Cc2ccc(N3C(=O)[C@H]4C(c5ccc(Br)cc5)=NO[C@H]4C3=O)cc2)cc1`: the TGI was greater than 40 µM in [1]; greater than 40 µM in assay [2]; greater than 3.48 µM in assay [3]; greater than 40 µM in assay [4]; greater than 40 µM in assay [5]; greater than 40 µM in assay [6]. For the same molecule, the TGI in assay [7] is greater than 40 µM; in [8], greater than 3.48 µM; in assay [9], greater than 40 µM; in assay [10], greater than 40 µM. In addition, the GI50 in assay [2], in assay [4], in assay [5], in assay [6], in [9] and in [10] was greater than 40 µM throughout.

As to `O=C(Cc1ccccc1)NN1C(=O)C(Cl)C1c1ccccc1Cl` (centres undefined), the TGI is greater than 100 µM in assay [1]; greater than 100 µM in assay [2]; greater than 88.4 µM in assay [3]; greater than 100 µM in assay [4]; greater than 100 µM in [5]; greater than 100 µM in assay [6]. For the same molecule, the TGI in [7], in assay [8], in assay [9] and in assay [10] was greater than 100 µM in each case.

On to `CCOc1ccccc1N=Nc1ccc2oc(=O)c(C(C)=O)cc2c1`, for which the TGI in [3], in assay [4], in [5], in assay [6], in [7] and in [8] was greater than 100 µM each time. The TGI in [9] and in assay [10] was greater than 100 µM in each case.

In the case of `N#CC(NNC(=O)Cc1ccccc1)c1cccc(O)c1` (centres undefined), the TGI in assay [1], in [2], in assay [3], in assay [4], in [5] and in [6] was greater than 100 µM in each case. Moreover, the TGI in [7], in assay [8], in [9] and in assay [10] was greater than 100 µM in each case.

For the origin of these results see PubChem BioAssay (NCI).
